From ChEMBL document CHEMBL1159003, “Chemical investigation and anti-inflammatory activity of Vitex negundo seeds” (1992) come the findings set out here.

Each structure is given as a SMILES string.

The experiment relates to Rattus norvegicus. The experiment is described as follows: Antiinflammatory activity in Sprague-Dawley rat assessed as inhibition of carrageenan-induced paw edema at 50 mg/kg, po after 3.5 hrs. It counts as functional. In general terms: In the carrageenan paw model, swelling and tenderness develop within hours.
What is called inhibition in vivo is the share of the control response that was lost under treatment. Turning to `CC1(C)CC[C@]2(C(=O)O)CC[C@]3(C)C(=CC[C@@H]4[C@@]5(C)C[C@H](O)[C@@H](O)C(C)(C)C5=CC[C@]43C)[C@@H]2C1`, the inhibition in vivo at 50 mg/kg is 34.3%.

Turning to `CC1(C)CC[C@]2(C(=O)O)CC[C@]3(C)C(=CC[C@@H]4[C@@]5(C)C[C@@H](O)[C@@H](O)C(C)(C)C5=CC[C@]43C)[C@@H]2C1`, the inhibition in vivo at 50 mg/kg is 18.7%.

Regarding `CC(C)Cc1ccc(C(C)C(=O)O)cc1` (stereo not drawn) [IBUPROFEN], the inhibition in vivo at 50 mg/kg came out at 63.2%.
